Results published in publication PMC3353486, “Fluorescence Correlation Spectroscopy in Drug Discovery: Study of Alexa532-Endothelin 1 Binding to the Endothelin ETA Receptor to Describe the Pharmacological Profile of Natural Products” (The Scientific World Journal, 2012).

Key:
[1] = tested on: Rat vascular smooth muscle A10 cells; test: Inositol phosphate (IP1) production, IP-One ELISA, A10 cells; format: cell-based; conditions: 0.5 to 50 nM ligand, 30 min; for inositol phosphate (IP1) production, dose-dependent increase up to: ELISA read at 450 nm, mean ± SEM of eight measurements
Method: The inositol phosphate determination assay was performed using the IP-One ELISA Kit for adherent cells (CISBIO, Cedex, France) following the operation instructions. […] The test substances were diluted in the stimulation buffer to a final concentration ranging from 0.5 to 50 nM. Cells were incubated for 30 minutes before their lysis. The supernatant was transferred into the ELISA plate where the competitive immunoassay took place. After the reaction was stopped, the optical density corresponding to IP accumulation was read at 450 nm with Bio-Rad Microplate Reader (Bio-Rad, Munich, Germany).
Data are presented as the mean ± SEM of eight measurements.

[2] = tested on: ETA receptor; set-up: method as in PMID 8942650; conditions: ET-1/receptor complexes dissociate slowly; cited from earlier work
[3] = molecular target: T1, endothelin ETA receptor (Rattus norvegicus, UniProt P26684); test: FCS binding of Alexa532-ET1 to ETA receptor on living A10 cells (total, saturation, lateral mobility)
T1 construct: endothelin ETA receptor-ligand complex alone and under the influence of a semisynthetic selective antagonist and a fungal extract on living A10 cells; endogenous in cells; host or cells: A10 cells
T1 sequence (P26684 21-426): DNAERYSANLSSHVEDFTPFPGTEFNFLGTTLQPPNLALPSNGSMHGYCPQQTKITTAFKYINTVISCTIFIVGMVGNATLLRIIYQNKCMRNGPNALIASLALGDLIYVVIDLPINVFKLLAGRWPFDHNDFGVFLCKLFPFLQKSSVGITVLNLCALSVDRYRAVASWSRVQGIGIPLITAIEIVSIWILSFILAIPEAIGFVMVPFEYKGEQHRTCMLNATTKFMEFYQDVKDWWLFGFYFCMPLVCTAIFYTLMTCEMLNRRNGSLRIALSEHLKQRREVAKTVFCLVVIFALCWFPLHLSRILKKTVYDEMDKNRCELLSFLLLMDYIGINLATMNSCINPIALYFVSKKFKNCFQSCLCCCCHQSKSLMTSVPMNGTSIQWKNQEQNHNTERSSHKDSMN
Method: FCS measurements were performed via confocal illumination of a volume element of 0.19 fL in a ConfoCor 1 instrument (Zeiss, Jena, Germany) with a C-Apochromat 63x, NA 1.2 objective for water immersion. A dichroic filter and a band-pass filter (FT 540, EF 530–600) (Andover, Salem, MA) separated the excitation light from the emitted fluorescence. Sample excitation was performed with the 514 nm line of an argon laser. The power of the laser beam entering the sample was 2.4 kW/cm^2. The intensity fluctuations were detected by an avalanche photodiode (SPCM-AQ Series, PerkinElmer Optoelectronics, Fremont, ON) and were correlated with a digital hardware correlator (ALV-5000, ALV, Langen, Germany). To calibrate the volume element of observation for the experiments, a defined concentration of tetramethylrhodamine (TMR) was used. From the determined diffusion time constant of TMR and the diffusion coefficient D of 280 μm^2/s, the radio ω 0 (0.20 μm) and z 0 (1.08 μm) of the volume element were determined. Volume element positioning to the upper membrane of the cell was performed by motor-aided scanning through the cell in the z-direction (optoelectronical DC-servodrives, resolution of 0.1 μm). For the FCS experiments, the focus was placed at half maximal of fluorescence intensity at the upper membrane, taking in fast diffusing free ligand and slow diffusing receptor-ligand complexes in the plasma membrane.
A10 cells were seeded at a density of 5.0 × 10^4 on 18 mm poly-D-lysine-coated coverslips. The coverslips were placed in a Nunc 12 well plate, and the cells were cultured for 7 days in Dulbecco's Modified Essential Media supplemented with L-glutamine (2 mM), 1% of a solution containing 10000 I.U./mL penicillin and 10000 μg/mL streptomycin (GIBCO, Invitrogen, Karlsruhe, Germany) and 20% foetal calf serum. The cells were grown in 5% CO2 at 37°C until confluence was reached.
Prior to the FCS measurements, cells were washed three times with Locke's solution (5 mM HEPES, 154 mM NaCl, 5.6 mM KCl, 1 mM MgCl2, 3.6 mM Na2CO3, 2.0 mM glucose, 2.3 mM CaCl2 (pH 7.4)) at 37°C.
The autocorrelation function G(τ) for j different diffusing components in a three-dimensional Gaussian volume element is given by the following equation:
(2) τDj=ω02/4Dj, (3) Qj=σjηjgj, where N j is the average number of molecules of the species j in the volume element, τ Dj is the diffusion time constant of the species j, τ is the correlation time; ω 0 is the radius of the observation volume in the focal plane, z 0 is the radius of the observation volume in the z-direction, D j is the translational diffusion coefficient of the species j; Q j is the quantum yield factor, σ j is the absorption coefficient, η j is the fluorescence quantum yield, and g j is the fluorescence detection efficiency of the species j.
All data points from FCS measurements represent mean values and standard deviations of six independent experiments. The statistical significance of results was proven with one factorial analysis of variance (ANOVA). The results were considered to be significant for P values ≤0.05.

[4] = tested on: GABAA receptor; conditions: coincubated benzodiazepines, hippocampal neurons, selectively complexes with hindered lateral mobility; cited from earlier work
Text: For the ETA receptor model described here, as well as for the GABAA and the β 2-adrenergic receptor models described elsewhere, the proportion of the fast diffusing receptor-ligand complexes was higher than that of slow diffusing receptor-ligand complexes. These findings ...

[5] = 14.3 nM Alexa532-ET1, equilibrium
[6] = control, 14.3 nM Alexa532-ET1, 45 min, living A10 cells, FCS, mean ± SD of six independent experiments

Compound | inositol phosphate (IP1) production, dose-dependent increase up to [1] [nM] | incubation time necessary to reach thermodynamic equilibrium [2] | total binding ([3]; 14.3 nM Alexa532-ET1, 45 min, 20°C) [%] | total bound ligand concentration ([3]; 14.3 nM Alexa532-ET1, 45 min, 20°C, equilibrium) [nM] | bound ligand with hindered diffusion (D bound1) [3, 5] [nM] | receptor-ligand complexes with unrestricted lateral mobility (D bound2) [3, 5] [nM] | maximum number of binding sites B max ([3]; bound versus total ligand, nonlinear curve fitting) [nM] | Free L with D free [%] [3, 6] [%] | R-L with D bound1 [%] (hindered diffusion, % of total Alexa532-ET1) [3, 6] | R-L with D bound2 [%] (unrestricted lateral mobility, % of total Alexa532-ET1) [3, 6] | diffusion time constant τ bound2 ([3]; receptor-ligand complex in plasma membrane, fast, 14.3 nM, 45 min, 20°C, n = 6) [ms] | diffusion time constant τ bound1 ([3]; receptor-ligand complex in plasma membrane, slow, 14.3 nM, 45 min, 20°C, n = 6) [ms] | diffusion coefficient D bound1 ([3]; receptor-ligand complexes with hindered lateral mobility, calculated from τ bound1) [μm^2/s] | diffusion coefficient D bound2 ([3]; receptor-ligand complexes with unrestricted mobility, calculated from τ bound2) [μm^2/s] | total concentration at which binding saturates ([3]; saturation of Alexa532-ET1 binding, 5–55 nM, 45 min) | inositol phosphate production (in words) [1] | diffusion time constant τ free (free diffusing Alexa532-ET1 in solution, n = 6) [μs] | diffusion coefficient D free (free diffusing ligand, calculated from τ free using equation (2)) [μm^2/s] | effect on Alexa532-muscimol binding (in words) [4]
Endothelin-1 [ET-1, reference compound] | 70 to 80 | more than 20 h | – | – | – | – | – | – | – | – | – | – | – | – | – | – | – | – | –
CC[C@H](C)[C@H](NC(=O)[C@H](CC(=O)O)NC(=O)[C@H](CC(C)C)NC(=O)[C@H](Cc1c[nH]cn1)NC(=O)[C@@H]1CSSC[C@H](N)C(=O)N[C@@H](CO)C(=O)N[C@H]2CSSC[C@H](NC(=O)[C@H](CCC(=O)O)NC(=O)[C@H](CCCCNC(=O)c3ccc(C4=c5cc6c(c(S(=O)(=O)O)c5Oc5c4cc4c(c5S(=O)(=O)O)NC(C)C4(C)C)=NC(C)C6(C)C)cc3)NC(=O)[C@H](CC(=O)O)NC(=O)[C@H](CCSC)NC(=O)[C@H](CC(C)C)NC(=O)[C@H](CO)NC(=O)[C@H](CO)NC2=O)C(=O)N[C@@H](C(C)C)C(=O)N[C@@H](Cc2ccc(O)cc2)C(=O)N[C@@H](Cc2ccccc2)C(=O)N1)C(=O)N[C@H](C(=O)N[C@@H](Cc1c[nH]c2ccccc12)C(=O)O)[C@@H](C)CC (some centres unmarked) [Alexa532-ET1] | 70 to 80 | – | 43.5 ± 12.3 | 6.22 ± 1.7 | 2.3 ± 0.7 | 3.9 ± 1.0 | 7.70 ± 0.74 | 56.5 ± 8.5 | 16.0 ± 5.2 | 27.5 ± 7.0 | 1.8 ± 0.2 | 63.6 ± 41.6 | 0.16 ± 0.06 | 5.6 ± 0.6 | approximately 35 nM | Dose-dependent increase of inositol phosphate production | 95.6 ± 9.0 | 104.2 ± 9.0 | –
Cc1ncc2n1-c1ccc(Cl)cc1C(c1ccccc1F)=NC2 [midazolam] | – | – | – | – | – | – | – | – | – | – | – | – | – | – | – | – | – | – | increased binding of Alexa532-muscimol
